# Results from patent publication US8802723B2, “Metabolic syndrome-improving agent and medicine, supplement, functional food and food additive containing the same” (ARKRAY, Inc., priority 2005, dated 2014).
# Molecular target: T1, PPARα (Homo sapiens, UniProt Q07869)
# T1 construct: GAL4 (pM vector); expressed in transfected cells; host or cells: CV-1 cells (African green monkey kidney)
# T1 sequence (Q07869 1-468): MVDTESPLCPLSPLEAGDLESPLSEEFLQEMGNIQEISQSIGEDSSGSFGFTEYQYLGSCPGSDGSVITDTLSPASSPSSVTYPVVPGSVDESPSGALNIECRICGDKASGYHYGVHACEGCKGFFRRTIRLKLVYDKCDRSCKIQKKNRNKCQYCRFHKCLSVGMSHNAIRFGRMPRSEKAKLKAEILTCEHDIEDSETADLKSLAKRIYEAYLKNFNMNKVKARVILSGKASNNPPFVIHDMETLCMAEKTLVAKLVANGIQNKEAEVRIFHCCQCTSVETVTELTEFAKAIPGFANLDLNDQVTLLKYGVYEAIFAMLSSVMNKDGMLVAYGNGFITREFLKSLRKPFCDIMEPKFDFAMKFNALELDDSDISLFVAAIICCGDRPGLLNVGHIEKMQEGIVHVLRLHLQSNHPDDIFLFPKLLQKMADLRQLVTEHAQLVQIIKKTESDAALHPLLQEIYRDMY
# Assay: PPARα ligand activity, GAL4-hPPARα luciferase reporter assay in CV-1 cells
# Format: cell-based
# Settings: for PPARα ligand activity: 24 h, relative to non-treatment control (DMSO) = 100, average ± standard error
# Description: CV-1 cells (cultured cells derived from kidneys of male African green monkeys) were implanted on 24-well culture plates so as to be […] and cultured at 37° C. in 5% CO2 for 24 hours. As a medium, DMEM (Dulbecco's Modified Eagle Medium; manufactured by GIBCO) containing 10% FBS (fetal bovine serum) and a 10 mg/mL penicillin streptomycin solution was used. Using the Lipofectamine system (trade name; manufactured by Invitrogen Corporation), pM-hPPARγ and p4× UASg-tk-luc were transfected. The above-noted pM-hPPARγ was a chimeric protein-expression plasmid binding GAL4 gene (amino acid sequence 1-147) and human PPARγ ligand-binding site gene (amino acid sequence 204-505), whereas the above-noted p4× UASg-tk-luc was a reporter plasmid containing four copies of a responsive element (UAS) of GAL 4 upstream of a luciferase gene. About 24 hours after the transfection, samples of aurapten at respective concentrations (0.1, 1.0, 10, 50 and 100 μM) were added to the above-described media, followed by 24 hour incubation. The above-noted samples were prepared by dissolving aurapten in dimethyl sulfoxide (DMSO). Instead of the aurapten, DMSO was added to non-treated control media. After the incubation, measurement was made using a Dual-Luciferase Reporter Gene Assay system (trade name; manufactured by Promega Corporation).
# Similarly to the measurement group, as a control group, pM (a plasmid from which PPARγ ligand-binding site gene was removed) was used for measurement instead of pM-hPPARγ. For each sample, the ratio between average luminescence intensities of the measurement group and the control group (n=4) (measurement group/control group) was calculated, and an activity relative to the non-treatment control was determined as the PPARγ ligand activity of the sample.
# The PPARα ligand activity of aurapten was measured similarly to Example 1 except that pM-hPPARα was used instead of pM-hPPARγ and the aurapten concentrations were set to 0.1, 1.0, 10, 50 and 80 μM.
smiles,measurement,setting,value
"CC(C)=CCC/C(C)=C/COc1ccc2ccc(=O)oc2c1 [Aurapten, aurapten]",effect on PPARα activity (in words),"0.1-80 μM, increased in keeping with the concentration",improved the activity of PPARα
same,PPARα ligand activity,aurapten 0.1 μM,234 ± 39.4
same,PPARα ligand activity,aurapten 1.0 μM,139 ± 38.3
same,PPARα ligand activity,aurapten 10 μM,302 ± 98.2
same,PPARα ligand activity,aurapten 50 μM,409 ± 27.8
same,PPARα ligand activity,aurapten 80 μM,1052 ± 232.9
